Results reported in article PMC5853465, “Use of D-glucose–fenpiclonil conjugate as a potent and specific inhibitor of sucrose carriers” (Journal of Experimental Botany, 2017).

Target: T1, AtSUC2 (Arabidopsis thaliana, UniProt Q39231)
T1 construct: gene SUC2; full coding region in plasmid pDR-R1-R2-HIS3 (derived from pDR 192), expressed in Saccharomyces cerevisiae RS453 cells
T1 sequence (Q39231 1-512): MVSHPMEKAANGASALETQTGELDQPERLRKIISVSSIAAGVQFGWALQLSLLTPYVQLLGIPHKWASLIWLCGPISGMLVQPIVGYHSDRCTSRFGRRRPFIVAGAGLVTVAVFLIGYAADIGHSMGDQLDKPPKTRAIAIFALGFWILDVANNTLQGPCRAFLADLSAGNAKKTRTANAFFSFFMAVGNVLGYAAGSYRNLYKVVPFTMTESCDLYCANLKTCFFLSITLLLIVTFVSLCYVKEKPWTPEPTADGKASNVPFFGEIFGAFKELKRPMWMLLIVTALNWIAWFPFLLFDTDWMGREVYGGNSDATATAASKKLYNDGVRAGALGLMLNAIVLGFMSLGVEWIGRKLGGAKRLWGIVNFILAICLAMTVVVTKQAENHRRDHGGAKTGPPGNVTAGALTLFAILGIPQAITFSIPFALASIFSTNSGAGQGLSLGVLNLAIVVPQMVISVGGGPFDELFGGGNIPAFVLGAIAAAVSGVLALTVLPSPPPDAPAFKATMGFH
Assay: […]sucrose uptake into AtSUC2-transformed yeast, empty vector subtracted
Type: cell-based
Settings: read-out: Inibition^b (%)

SMILES: CC(C(=O)NCc1cn([C@@H]2O[C@H](CO)[C@@H](O)[C@H](O)[C@H]2O)nn1)n1cc(C#N)c(-c2cccc(Cl)c2Cl)c1 (stereo partly drawn) [D-GFC, D-glucose–fenpiclonil conjugate]
- inhibition at 500 µM: 81.5%
